Reference: article PMC7501296, “Rapid and direct control of target protein levels with VHL-recruiting dTAG molecules” (Nature Communications, 2020)
Several values for one entry are separate records, joined by “and”; a condition that tells them apart may be missing. Equal entries are not always repeated.

Test system: EWS502 FKBP12^F36V-EWS/FLI; EWS/FLI^−/− cells
Experiment: Quantitative MS proteomics, EWS502 FKBP12F36V-EWS/FLI; EWS/FLI-/- cells
Assay type: cell-based, Homo sapiens
Settings: for TMT intensity per TMT channel: biological replicates
Protocol: Cell pellets from PATU-8902 and EWS502 cells were lysed using 8 M urea, 200 mM 4-(2-hydroxyethyl)-1-piperazinepropanesulfonic acid (EPPS) at pH 8.5 with protease inhibitors. Samples were further homogenized and DNA was sheered via sonication using a probe sonicator (20 × 0.5 s pulses; level 3). Total protein was determined using a BCA assay and stored at −80 °C until future use. A total of 100 µg of protein was aliquoted for each condition and TMT channel for further downstream processing. Protein extracts were reduced using 10 mM dithiothreitol (DTT) for 30 min at room temperature. Next, samples were alkylated with 20 mM iodoacetamide for 45 min in the dark at room temperature. To facilitate the removal of incompatible reagents, proteins were precipitated using chloroform methanol. Briefly, to 100 µL of each sample, 400 µL of methanol was added, followed by 100 µL of chloroform with thorough vortexing. Next, 300 µL of HPLC grade water was added and samples were vortexed thoroughly. Each sample was centrifuged at 14,000 × g for 5 min at room temperature. The upper aqueous layer was removed and the protein pellet was washed twice with methanol and centrifuged at 14,000 × g for 5 min at room temperature. Protein pellets were resolubilized in 200 mM EPPS buffer and digested overnight with Lys-C (1:100, enzyme:protein ratio) at room temperature. The next day, trypsin (1:100 ratio) was added and incubated at 37 °C for an additional 6 h in a ThermoMixer set to 1000 RPM.
To each digested sample, 30% anhydrous acetonitrile was added and 100 µg of peptides were labeled using 200 µg of TMT reagent (TMT1-TMT11). Following labeling, a 5% hydroxylamine solution was used to quench excess TMT reagent. To equalize protein loading, a ratio check was performed by pooling 2 µg of each TMT-labeled sample. Samples were pooled and desalted using in-house packed C18 StageTips and analyzed by LC-MS/MS. Normalization factors were calculated from this label check, samples were mixed 1:1 across all TMT channels and desalted using a 100 mg Sep-Pak solid phase extraction cartridge. Eluted pooled peptides were further fractionated with basic-pH reverse-phase (bRP) HPLC using an Agilent 300 extend C18 column and collected into a 96 deep-well plate. Samples were consolidated into 24 fractions, and 12 nonadjacent fraction were desalted using StageTips prior to analyses using LC-MS/MS[35]–[37].
All mass spectrometry data was acquired using an Orbitrap Fusion mass spectrometer in-line with a Proxeon NanoLC-1000 UHPLC system. Peptides were separated using an in-house 100 µm capillary column packed with 40 cm of Accucore 150 resin (2.6 µm, 150 Å) (Thermo Fisher Scientific) using a 180 min LC gradient per fraction. Eluted peptides were acquired using synchronous precursor selection (SPS-MS3) method for TMT quantification. Briefly, MS1 spectra were acquired at 120 K resolving power with a maximum of 50 ms in the Orbitrap. MS2 spectra were acquired by selecting the top ten most abundant features via collisional induced dissociation (CID) in the ion trap using an automatic gain control (AGC) of 15 K, quadrupole isolation width of 0.7 m/z and a maximum ion time of 100 ms. For MS3 acquisition, a synchronous precursor selection of ten fragment ions was acquired with an AGC of 150 K for 150 ms and a normalized collision energy of 55.
All acquired raw data were converted to mzXML using Raw File Reader (v3.0.77). Spectra were processed using Comet (2019.01.5)[39]–[41], search results were filtered using the LDA function MASS Package in R, and data were processed using an in-house informatics pipeline[42]–[44]. Custom code was not developed in this study. Briefly, peptide spectral libraries were first filtered to a peptide false discovery rate (FDR) of less than 1% using linear discriminant analysis employing a target decoy strategy. […]

CC[C@H](C(=O)N1CCCC[C@H]1C(=O)O[C@H](CCc1ccc(OC)c(OC)c1)c1ccccc1OCC(=O)NCCCCCCC(=O)N[C@H](C(=O)N1C[C@H](O)C[C@H]1C(=O)N[C@@H](C)c1ccc(-c2scnc2C)cc1)C(C)(C)C)c1cc(OC)c(OC)c(OC)c1 [dTAG^V-1]
Downstream EWS/FLI targets such as NKX2-2 (1 μM): decrease | FKBP12F36V-EWS/FLI abundance, proteomics (1 μM, 6 h): pronounced loss | TMT intensity per TMT channel (protein ALX1, 2 h): 329.39 and 330.899 and 363.825 | TMT intensity per TMT channel (protein ALX1, 6 h): 447.307 and 474.897 and 456.686 | TMT intensity per TMT channel (protein ALX1, 24 h): 404.298 and 454.379 and 455.33 | TMT intensity per TMT channel (protein ALX4, 2 h): 469.052 and 457.885 and 499.883 | TMT intensity per TMT channel (protein ALX4, 6 h): 458.233 and 484.524 and 491.274 | TMT intensity per TMT channel (protein ALX4, 24 h): 439.297 and 450.367 and 443.433 | Fold change > 2 (protein HMGCR, 1 μM, 6 h): + (Fold change in which '+' refers to fold change > 2.) | log2 (Fold change) compared to DMSO (protein HMGCR, 1 μM, 6 h): 1.415 | TMT intensity per TMT channel (protein HOXD13, 2 h): 710.117 and 733.089 and 700.291 | TMT intensity per TMT channel (protein HOXD13, 6 h): 834.508 and 881.589 and 912.211 | TMT intensity per TMT channel (protein HOXD13, 24 h): 931.777 and 1032.27 and 996.28 | log2 (Fold change) compared to DMSO (protein NOB1, 1 μM, 6 h): 0.3965 | TMT intensity per TMT channel (protein PHOX2B, 2 h): 138.138 and 127.877 and 140.273 | TMT intensity per TMT channel (protein PHOX2B, 6 h): 146.64 and 175.628 and 155.142 | TMT intensity per TMT channel (protein PHOX2B, 24 h): 163.818 and 130.026 and 156.319 | log2 (Fold change) compared to DMSO (protein PRCP, 1 μM, 6 h): -0.5172 | TMT intensity per TMT channel (protein SLC12A2, 2 h): 2102.8 and 2152.89 and 2069.05 | TMT intensity per TMT channel (protein SLC12A2, 6 h): 2768.92 and 2608.81 and 2791.59 | TMT intensity per TMT channel (protein SLC12A2, 24 h): 2883.76 and 2924.13 and 2976.61 | log2 (Fold change) compared to DMSO (protein SQLE, 1 μM, 6 h): 0.8919 | log2 (Fold change) compared to DMSO (protein TMEM126A, 1 μM, 6 h): -0.3183
